Results on one compound are retold here after patent US10022382B2, “RNA polymerase I inhibitors and uses thereof” (Tel HaShomer Medical Research Infrastructure and Services …, priority 2013, dated 2018).

The subject of one data set is naive mice. Nature of the data set: Single dose oral toxicity in naive mice. The class given is in vivo. Particulars: single oral dose 3 mg/kg to 500.0 mg/kg, 24 h. The procedure:
The toxicity of oral administration of a single dose of Compound 10 was tested in naïve mice using range from 3 mg/kg to 500.0 mg/kg.

A further data set relates to pre-rRNA. Nature of the data set: Q-RT-PCR of pre-rRNA in PHA-stimulated splenocytes of naive mice. The class given is cell-based. As to conditions: 72 hours, 25 to 400 nM. The procedure: RNA samples from similar cultures were also prepared and tested by Q-RT-PCR for pre-rRNA expression levels as described in Example herein below.
RNA Extraction: For in vivo experiments spleens from EAE mice were isolated at day 17 post immunization and splenocytes were re-stimulated for 72 h hours in the presence of 5.0 μg/ml MOG35-55. For in-vitro experiments spleens from intact mice were isolated and splenocytes were stimulated with for 72 h in the presence of PHA. RNA was extracted from splenocytes of both the in-vitro and in-vivo experiments by robotic ABI PRISM, Applied biosystem 6100 Nucleic Acid Prep Station. To avoid genomic DNA contamination samples were treated with DNase I (Roche). The quality and integrity of the total RNA preparation was confirmed using a NanoDrop 2000c Spectrophotometer (Thermo Scientific).
Quantitative RT-PCR of Pre-rRNA: Complementary DNA was obtained from the extracted RNA by the High capacity cDNA reverse transcription kit (Applied Biosystems, CA, USA) following manufacturer's instructions. To confirm the role of POL1 pathway suppression by POL1-Inhibitors, the expression level of pre-rRNA transcript, a key gene of the RNA polymerase I pathway, was evaluated by Q-RT-PCR (n=3 per group). […] (SEQ ID NO: 70) with a quantification probe (Roche, Probe ID #1, cat. no. 04684974001). […]

The nature of the next data set: Solubility in mQ water. The class given is physicochemical. As to conditions: 50 mg in 0.5 mL mQ water, room temperature. The procedure:
The solubility of Compounds 1 and 10 was determined by dissolving 50 mg of the tested compound in 0.5 mL of mQ water, at room temperature.

The subject of data set [1] is MOG35-55 EAE in C57BL/6J mice. Nature of the data set: MOG35-55 EAE prevention (immunization) model. The class given is in vivo. As to conditions: for minimal effective dose: oral. The procedure: Mice: Eight-weeks-old female C57BL/6J mice (15-20 g, Harlan laboratories, Rehovot, Israel) were used in all experiments. Animal maintenance and experimental protocols were performed in accordance with the Israeli Council for Animal Care guidelines and approved by Sheba IRB Animal Care Committee. Mice were kept in an SPF environment, maintained on a 12-h light/dark cycle at a constant environmental temperature with free access to food and water in their home cages.
Induction of MOG35-55 EAE (Prevention Model): EAE (Experimental Autoimmune Encephalomyelitis) was induced in 8 week old female C57BL/6J mice (15-20 g, Harlan laboratories, Rehovot, Israel) by immunization with an emulsion containing 300 μg of purified myelin oligodendrocyte glycoprotein (MOG) peptide ([…], corresponding to residues 35-55; obtained from (Difco, Detroit, Mich.) in saline and an equal volume of complete Freund's adjuvant containing 5 mg H37RA (Difco, Detroit, Mich.). 0.2 ml of the inoculum was injected subcutaneously. In addition, 300 ng of Bordetella pertusis toxin (Sigma) in 0.2 ml saline was injected intraperitoneally at the day of induction and two days later.
Oral gavages with the tested compound, at various concentrations ranging from 3 mg/kg-30 mg/kg in PBS or 50 mM NaH2PO4 (PH 4.5), or with vehicle only, were initiated at day of immunization. Mice were monitored daily for clinical signs of EAE, scored as: 1, flaccid tail; 2, forelimb weakness and poor righting ability; 3, hind limb paralysis; 4, quadriplegia; 5, moribund. Animal reaching a score of 4 were scarified using CO2.
Treatment was stopped once 30% of the vehicle-treated animals scored 1 on the EAE score. […]
The therapeutic index (LD50/ED50), which is also referred to herein as Safety Margin (SM), was then determined based on the EAE model. ED50 is the minimum effective dose observed for 50% of the tested animals.

The next data set relates to Pol II. Nature of the data set: Cell-free polymerase II transcription from CMV promoter. The class given is biochemical, human. Particulars: 200 nM. The procedure:
Transcription by polymerase II from CMV promoter was tested similarly using the template provided HeLa scribe kit of Promega, further processing as described above and analysis of transcript with template specific primers: POL II forward primer: ctatgcgcacccgttctc (SEQ ID NO: 73), Pol II reverse primer: gtagcgaagcgagcagga (SEQ ID NO: 74). Probe ID: #70, cat. no. 04688937001 (Roche), was used for both reactions.

For a further data set, the system named is splenocytes. The data set is described as follows: Viability, proliferation and apoptosis of MOG 35-55 incubated splenocytes from immunized mice (XTT, BrdU, flow cytometry). The class given is cell-based. As to conditions: splenocytes 14 days post immunization, 72 h MOG 35-55, vs vehicle. The procedure: In addition, viability, proliferation and apoptosis of splenocytes isolated from mice 14 days post immunization and incubated for 72 h with MOG 35-55 were assessed by XTT, BrdU and flow cytometry (Annexin V and propidium iodide double staining) assays, respectively.
In general terms: Tetrazolium assays rely on reduction of a dye to a coloured formazan, in cell work by metabolically active cells.

Each structure is given as a SMILES string.

Consider `Cc1cnc(CNC(=O)c2/c(=N/c3ccccc3)c3ccc(N4CCCN(C)CC4)nc3n3c2sc2ccccc23)cn1` [Compound 10, (E)-2-(4-methyl-1,4-diazepan-1-yl)-N-((5-methylpyrazin-2-yl)methyl)-5-(phenylimino)-5H-benzo[4,5]thiazolo[3,2-a][1,8]naphthyridine-6-carboxamide], for which, in the data set with naive mice, the behavioral changes entry is recorded as “No behavioral changes” and the survival entry is “No effect on survival”. The “pre-rRNA mRNA levels expressed by splenocytes” value in the data set on pre-rRNA is listed as “significant dose dependent decrease”. In “Solubility in mQ water”, the solubility result is “immediately dissolved in the aqueous solution”. For the same compound, the disease incidence in data set [1] (3 mg/kg, alternate days) stood at 98%. In data set [1] (12.0 mg/kg oral, alternate days), the “delay of disease development” value was found to be 10 days. In addition, the EAE severity result in data set [1] (12.0 mg/kg oral, alternate days, 23 day post immunization) was “suppressed EAE severity”. In data set [1] (12.5 mg/Kg oral, 15 mice), the “EAE onset (dpi)” value worked out at 19.2 ± 0.6 dpi, the Max clinical score worked out at 1.2 ± 0.4 and the “Peak of EAE (dpi)” value is given as 20.4 ± 0.7 dpi. The compound further returned a Cumulative disease score in data set [1] (12.5 mg/Kg oral, sum of scores day 0 to day 31) of 7.2 ± 1.9. In data set [1] (12.5 mg/Kg, 15 mice per group), the “additional days free of disease compared to vehicle” value was 10 days and the “delay of peak of disease compared to vehicle” value turned out to be 6 days. Moreover, in data set [1] (12.5 mg/kg daily), the EAE inhibition result is listed as “complete inhibition of EAE”. In data set [1] (12.5 mg/kg, alternate days), this compound returned a disease incidence of 22%. The disease development result in data set [1] (30 mg/kg, alternate days) is “completely inhibited disease development”. The ED50 (commonly the dose at which the effect has come halfway, by size or by number of responders) in data set [1] (Mus musculus) was 3 mg/kg. Further, the minimal effective dose (commonly the lowest level tested that produced the effect sought) in data set [1] (alternate days) stood at 6 mg/kg. The compound further registered a minimal effective dose in data set [1] (daily administration) of 3.0 mg/kg. The “effect on Pol II transcription from the CMV promoter” value in the data set with Pol II came out at 5%. Further, in the data set with splenocytes, the “apoptosis (Annexin V and propidium iodide)” value was “induced apoptosis in CD4+ lymphocytes”; the “cell proliferation (BrdU)” value was “suppressed cell proliferation”; the “viability (XTT)” value is listed as “reduced viability”.
